In US20160166520A1, “METHODS AND COMPOSITIONS RELATING TO THE TREATMENT OF VISCERAL FAT AND ASTHMA” (YALE UNIVERSITY, priority 2014, published 2016):

What was measured:
Sirt1 [1] = target: T1, Sirt1 (Mus musculus, UniProt Q923E4); assay: OVA aeroallergen-induced adaptive Th2 lung inflammation in mice treated with Sirt1 inhibitor; assay type: in vivo; settings: OVA sensitized and challenged, 0.4 mg/kg body weight per day i.p. one hour before every antigen challenge, vs DMSO vehicle
T1 construct: from tissue; host or cells: whole living mice (WT and Chi3l1-/-); read-outs in lung/BAL and epididymal fat pads
T1 sequence (Q923E4 1-737): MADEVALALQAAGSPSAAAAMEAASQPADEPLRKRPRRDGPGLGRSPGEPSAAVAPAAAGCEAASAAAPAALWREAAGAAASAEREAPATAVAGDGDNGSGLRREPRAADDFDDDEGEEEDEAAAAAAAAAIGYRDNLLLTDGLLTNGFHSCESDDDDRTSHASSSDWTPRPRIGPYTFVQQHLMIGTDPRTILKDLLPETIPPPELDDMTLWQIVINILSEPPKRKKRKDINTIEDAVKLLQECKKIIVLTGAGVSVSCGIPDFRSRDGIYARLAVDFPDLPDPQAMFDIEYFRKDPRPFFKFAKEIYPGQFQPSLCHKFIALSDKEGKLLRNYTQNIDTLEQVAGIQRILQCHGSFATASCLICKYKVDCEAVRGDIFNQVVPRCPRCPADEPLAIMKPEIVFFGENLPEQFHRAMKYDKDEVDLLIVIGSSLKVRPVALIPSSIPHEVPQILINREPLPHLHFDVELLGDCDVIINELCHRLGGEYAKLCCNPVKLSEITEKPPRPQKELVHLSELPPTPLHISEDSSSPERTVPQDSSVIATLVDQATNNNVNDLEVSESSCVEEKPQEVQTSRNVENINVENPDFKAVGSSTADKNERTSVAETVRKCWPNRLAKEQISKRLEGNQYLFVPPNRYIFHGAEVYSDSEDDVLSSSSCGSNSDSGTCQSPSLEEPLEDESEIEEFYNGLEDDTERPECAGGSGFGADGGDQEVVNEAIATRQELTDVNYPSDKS
Procedure: WT and Chit3l1^−/− mice were sensitized and challenged with OVA (ova+) or PBS (ova−) and were treated with Sirtinol or its vehicle (DMSO). Each animal received drug (0.4 mg/kg body weight per day) or vehicle one hour before every antigen challenge. FIGS. 6A-6B depict BAL total cell and eosinophil recovery, FIG. 6C depicts H&E photomicrographs of lungs from WT and Chi3l1^−/− mice treated with sirtinol or vehicle after OVA challenge, FIGS. 6D-6H depict the levels of mRNA encoding IL-4, IL-13, IL-17, IL-6 and TNF-α in the lungs of WT and Chi3l1^−/− mice treated with Sirtinol or DMSO. The noted values represent the mean±SEM of a minimum of 5 animals. (*p≦0.05, **p≦0.01). Mice were sensitized and challenged with ovalbumin (OVA) as previously described (20). One day after last challenge, the mice were sacrificed, bronchoalveolar lavage (BAL) was undertaken, and tissue responses were evaluated. Sirtinol, a Sirt1 inhibitor (Enzo Life Sciences) or vehicle control (0.05% dimethyl sulofoxide) were diluted with Phosphate Buffered Saline (PBS) and administered via an intraperitoneal (i.p.) route.

Sirt1 [2] = target: T1, Sirt1; assay: Visceral (epididymal) fat accumulation in mice treated with Sirt1 inhibitor; assay type: in vivo; settings: 0.4 mg/kg body weight per day i.p. twice per week for 5 weeks, vs DMSO vehicle
Procedure: WT and Chi3l1^−/− mice were treated with Sirtinol or its vehicle (DMSO) and fat accumulation was assessed. Each animal received drug (0.4 mg/kg body weight per day) or vehicle twice per week for 5 weeks. FIG. 7A depicts a representative photograph illustrating abdominal fat accumulation, FIG. 7B depicts the weight of epididymal fat pads from WT and chi3l1^−/− mice. The noted values represent the mean±SEM of a minimum of 5 animals. (*P≦0.05, **p≦0.01). Sirtinol, a Sirt1 inhibitor (Enzo Life Sciences) or vehicle control (0.05% dimethyl sulofoxide) were diluted with Phosphate Buffered Saline (PBS) and administered via an intraperitoneal (i.p.) route.

- levels of visceral fat (Sirt1 [2]; Chi3l1 null mice): restored
- levels of visceral fat (Sirt1 [2]; WT mice): did not significantly alter
Structure (SMILES): CC(NC(=O)c1ccccc1/N=C/c1c(O)ccc2ccccc12)c1ccccc1 (stereo not shown) [Sirtinol]
- aeroallergen induced Th2 inflammation and Th2, IL-17 and IL-6 cytokine expression, and airway mucus (Sirt1 [1]; Chi3l1 null mice): restored
- aeroallergen-induced Th2 inflammation and Th2, IL-17 and IL-6 cytokine production and mucus production in the lung (Sirt1 [1]; WT mice): diminished
